Experimental data from US8936808B1, “Opioid agonist/opioid antagonist/acetaminophen combinations” (Purdue Pharma L.P., priority 1997, dated 2015).
Entries after “also recorded” stand apart in the source; their conditions may differ. Like-named read-outs stand apart in the source and are kept apart here.

Tests used:
[1] = type: in vivo
From the text: In certain other preferred embodiments, the opioid included in the dosage form is a different orally active opioid agonist than hydrocodone. […] Equianalgesic dosages of various opioid analgesics are provided below, and are otherwise known to those skilled in the art, e.g, from Foley, K. “The Treatment of Cancer Pain;” N. Engl.
In certain preferred embodiments, the opioid agonist is hydrocodone. Equianalgesic doses of the remaining opioids mentioned herein (and others) are known to those skilled in the art.

[2] = tested on: effects of morphine-like opioid agonist / heroin; details: cited from earlier work
[3] = tested on: precipitated withdrawal / subjective effects of hydrocodone; test: Example 3: precipitated withdrawal in morphine dependent volunteers receiving hydrocodone 30 mg and naltrexone oral solution; type: in vivo, human
mu over delta sites = details: cited from earlier work
[4] = tested on: opioid agonist properties of hydrocodone; test: Example 1: naltrexone antagonism of hydrocodone 15 mg (VAS drug effect, pupillometry), four-way crossover study
Experimental: All treatments were administered under fasted conditions. […] Subjects were randomly assigned to four treatment sequences of the four treatment groups. […] Safety measurements consisted of reports of adverse events, vital signs, abnormal laboratory values, abnormal physical examination and ECG results. Pharmacodynamic parameters (pupil size and Modified Specific Drug Effect Questionnaire) were also assessed.
Pupil Size—Measured by Pupillometry.
The camera was centered in front of the subject's face with 3 inch frame against the lateral orbital rims and the eyes occupying the very top of the field (to minimize upgaze). The subject was asked to look just over the camera body and to fixate on a non-accommodative target in the distance, thereby minimizing the near reflex. With the volunteer fixing in the distance, the photo was taken. All photographs were taken in constant ambient light. The pupillary latency was such that the flash will not affect pupillary diameter. […] Development of the print for the recommended length of time (approximately one (1) minute, varying with ambient temperature) will produce a one-to-one photograph of the volunteer's midface, with the pupils at the top of the print. Horizontal pupillary diameter is then measured using a simple plus magnifier with a built-in reticule calibrated to 0.1 millimeter. Only the left eye was used to measure pupillary effects at each time period specified in the protocol. • b. A Modified Specific Drug Effect Questionnaire. […] The present questionnaire consisted of 10 items rated by the subject 10 minutes prior to blood sampling. The item is related to signs of opiate agonist drugs and was as follows: Subject questions: 1) do you feel any effects from the drugs?, 2) does your skin feel itchy?, 3) do you feel relaxed?, 4) do you feel sleepy?, 5) do you feel drunk?, 6) do you feel nervous?, 7) do you feel full of energy?, 8) do you feel you need to talk?, 9) do you feel sick to your stomach?, 10) do you feel dizzy? The subject then rated the item by placing a vertical mark along a 100 mm visual analog scale (VAS) anchored on one end by “not at all” and at the other end by “an awful lot”.

[5] = tested on: opioid agonist effects of hydrocodone; test: Example 2: ratio of oral naltrexone to oral hydrocodone, ten-period crossover (VAS drug effect, pupil diameter); type: in vivo, human
Experimental: All treatments were administered under fasted conditions. […] Subjects were randomly assigned to ten treatment sequences of the ten treatment groups.
The fast continued for an additional four (4) hours post-dose.
All samples were collected within ±2 minute of the scheduled time.

[6] = cited from earlier work
[7] = cited from earlier work; remark: listed apart in the source
[8] = cited from earlier work; remark: listed apart in the source
[9] = in comparison to a 15 mg dose of hydrocodone
[10] = 6.4-mg naltrexone dose, hydrocodone 15 mg
[11] = 15 mg hydrocodone (HYIR/APAP) with increasing doses of naltrexone, range 0 mg-12.8 mg

Meperidine
Equianalgesic Doses of Opioids, Calculated Dose [1, 9]: 135.0 mg

O=C1CC[C@@]2(O)[C@H]3Cc4ccc(O)c5c4[C@@]2(CCN3CC2CC2)[C@H]1O5 [naltrexone]
effect on opioid agonist effects of 25 mg intravenous heroin challenge ([2]; 50 mg given 24 hours prior to challenge): completely blocked or attenuated | precipitated withdrawal (abstinence) ([3]; naltrexone 1 and 2 mg with hydrocodone 30 mg, first protocol): slight abstinence | subjective experience of hydrocodone on addition of naltrexone ([3]; physically dependent subjects, hydrocodone 30 mg): decreased the favorable subjective experience of hydrocodone | blocking action, receptor preference (mu over delta sites): strong preferential blocking action against mu over delta sites | block of the opioid effect (VAS drug effect) of hydrocodone [4, 10]: not completely blocked | block of the pupillary constriction of hydrocodone [4, 10]: not completely blocked | antagonism of hydrocodone-induced pupillary constriction, relation to dose ([4]; naltrexone 3.2 and 6.4 mg with hydrocodone 15 mg, FIG. 2): dose-response effect | antagonism of hydrocodone-induced VAS drug effect, relation to dose ([4]; naltrexone oral solution 3.2 and 6.4 mg with hydrocodone 15 mg, FIG. 1): dose-response effect | drug effect VAS score [5, 11]: overall decrease | pupillary constriction / pupil diameter [5, 11]: decrease in pupillary constriction; also recorded: increase in pupil diameter | antagonism of the 15 mg hydrocodone dose ([5]; approximately 0.4 mg naltrexone): minimally antagonized | effect of the hydrocodone dose ([5]; naltrexone dosages above 0.4 mg): increasing diminution

CC(=O)Nc1ccc(O)cc1 [acetaminophen]
solubility in water [6]: only poorly soluble in water

C[C@H]1[C@H]2Cc3ccc(O)cc3[C@]1(C)CCN2CC1CC1 [cyclazocine]
duration of action after oral doses [7]: ~24 h

CN1CC[C@]23CCCC[C@H]2[C@H]1Cc1ccc(O)cc13 [Levorphanol]
Equianalgesic Doses of Opioids, Calculated Dose [1, 9]: 1.8 mg

COc1ccc2c3c1O[C@H]1C(=O)CC[C@@]4(O)[C@@H](C2)N(C)CC[C@]314 [Oxycodone]
Equianalgesic Doses of Opioids, Calculated Dose [1, 9]: 13.5 mg

CN1CC[C@]23c4c5ccc(O)c4O[C@H]2[C@@H](O)C=C[C@H]3[C@H]1C5 [Morphine]
Equianalgesic Doses of Opioids, Calculated Dose ([1]; in vivo): 27.0 mg

C=CCN1CC[C@]23c4c5ccc(O)c4O[C@H]2C(=O)CC[C@@]3(O)[C@H]1C5 [naloxone]
block of the effect of 25 mg of heroin ([2]; 1 mg intravenously): completely block | effect on morphine-like opioid agonist effects ([2]; 0.4-0.8 mg intramuscularly or intravenously in man): prevent or promptly reverse

CCC(=O)C(CC(C)N(C)C)(c1ccccc1)c1ccccc1 (stereo not drawn) [Methadone]
Equianalgesic Doses of Opioids, Calculated Dose [1, 9]: 9.0 mg

COc1ccc2c3c1OC1C(=O)CC[C@H]4[C@@H](C2)N(C)CC[C@]314 (stereo partly drawn) [Hydrocodone, 4,5-epoxy-3-methoxy-17-methylmorphinan-6-one]
relative analgesic potency versus oral morphine ([8]; in vivo, po): about two times | onset of effect ([3]; in combination with naltrexone): < 0.5 h | Equianalgesic Doses of Opioids, Calculated Dose [1, 9]: 15.0 mg | pupillary constriction ([4]; hydrocodone 15 mg plus naltrexone placebo): most pupillary constriction

COc1ccc2c3c1O[C@H]1[C@@H](O)C=C[C@H]4[C@@H](C2)N(C)CC[C@@]341 [Codeine]
Equianalgesic Doses of Opioids, Calculated Dose [1, 9]: 90.0 mg

CN1CC[C@]23c4c5ccc(O)c4O[C@H]2[C@@H](O)C=C[C@H]3[C@H]1C5.O=S(=O)(O)O [morphine sulphate]
oral hydrocodone dose equivalent to 15 mg i.m. ([8]; 15 mg i.m.): 30 mg
